Reference: PubChem BioAssay AID1996
Converted amounts (≈) assume the structure as drawn.

settings: buffer; pH 7.4; 200.0 µM

Structure (SMILES)	solubility kinetic [µg/mL]
N#Cc1ccccc1COC(=O)c1cc(=O)c2ccccc2o1	16.7 (≈ 54.7 µM)
CC(=O)c1sc(NCc2ccc(C)cc2)nc1C	38.6 (≈ 148 µM)
Nc1ncnc(Nc2ccccc2)n1	> 28.1
O=C(Nc1ccncc1)c1c(F)c(F)c(F)c(F)c1F	41.6 (≈ 144 µM)
CCOC(=O)c1c(C)[nH]c(NC(=O)Nc2ccc(NC(C)=O)cc2)c1C	22.2 (≈ 61.9 µM)
CC1CCC(NC(=O)Cn2cnc3sccc3c2=O)CC1 (stereo unspecified)	> 45.8
CCCCCCN1C2=NCCCN2c2ccccc21.Cl	> 44.1
COC(=O)c1ccc(CO/N=C/c2ccc(OC)cc2OC)cc1	< 0.7
CCOC(=O)C(=O)Nc1sc(C(=O)N(CC)CC)c(C)c1C#N	> 50.6
N#Cc1cc([N+](=O)[O-])ccc1NC(=O)CSc1n[nH]c(=O)[nH]c1=O	> 52.2
O=C1NC(=S)NC(=O)C1=Cc1ccc(OCC(=O)N2CCCC2)cc1	51.8 (≈ 144 µM)
COc1cc(C(=O)NCCCc2ccccc2)cc(OC)c1OC	> 49.4
C[n+]1c(-c2ccccc2)sc([S-])c1-c1ccccc1	36 (≈ 127 µM)
COc1ccc(CNC(=O)c2cc3cc(OC)ccc3oc2=O)cc1	< 0.7
CCOc1ccccc1NC(=O)Nc1ccon1	15.5 (≈ 62.7 µM)
Cc1nn(Cc2cccc(C(=O)O)c2)c(C)c1[N+](=O)[O-]	> 41.3
COC(CNc1nc(SC)nc2sc3c(c12)CCN(C)C3)OC	52.4 (≈ 148 µM)
Cl.OC(COCc1ccccc1F)CN1CCCCC1 (stereo unspecified)	44.1
COC(=O)C1CCN(c2cc(Cl)nc(N)n2)CC1	24.5 (≈ 90.5 µM)
Cc1ccc(C)c(OCCC(=O)OCC(=O)NC2CCCC2)c1	43.5 (≈ 136 µM)
CCc1ccccc1NC(=O)C1CCCN(c2nccc(C)n2)C1 (stereo unspecified)	3.4 (≈ 10.5 µM)

Structure (SMILES)	solubility kinetic [µg/mL]
CC(=O)Nc1cccc(-c2csc(Nc3ncccn3)n2)c1	3.5 (≈ 11.2 µM)
O=C(NCCNC(=O)c1cnccn1)c1ccc(Cl)c(Cl)c1	6.9 (≈ 20.3 µM)
Cn1c(C(=O)O)ccc1S(=O)(=O)N1CCCCCC1	> 43
CC(C)(C)c1ccc(/C=C/C(=O)NCCCn2ccnc2)cc1	46.1 (≈ 148 µM)
O=C(O)c1cccnc1SCc1cccc(Br)c1	> 48.6
CS(=O)(=O)N1CCN(C(=O)Cc2ccc([N+](=O)[O-])cc2)CC1	49 (≈ 150 µM)
O=C(CSc1ncccn1)NC(=O)NCc1ccco1	40.8 (≈ 140 µM)
CC(C)CC(=O)N/N=C/c1c(N)n(C)c(=O)n(C)c1=O	> 42.2
O=C(Cc1ccccc1Cl)NCc1cccnc1	> 39.1
COc1ccc(OCCSc2ncc(CO)n2C)cc1	> 44.2
O=C(COc1ccc2c(c1)OCO2)Nc1nccs1	20.9 (≈ 75.1 µM)
CC(NC(=O)COC(=O)c1ccc2c(c1)OCCO2)c1ccccc1 (stereo unspecified)	11.4 (≈ 33.4 µM)
COc1ccccc1OCCCC(=O)NCc1ccco1	> 43.4
Cc1ccc(C(=O)C(C)Sc2nnc(N)s2)cc1 (stereo unspecified)	> 41.9
COc1cc(C(=O)Nc2ccc(Nc3ccccc3)cc2)cc(OC)c1OC	4.4 (≈ 11.6 µM)
CC(=O)c1csc(COc2cc(Cl)cc(Cl)c2)n1	< 0.6
CSc1ccccc1NC(=O)Nc1cccc2ccccc12	< 0.3
CSc1ccccc1C(=O)OCC(=O)N1CCCC1=O	> 44
Cc1ccc(Oc2nc3c(c(=O)n(C)c(=O)n3C)n2C)cc1C	40 (≈ 127 µM)
c1ccc(-c2noc(CN3CCc4sccc4C3)n2)cc1	13.4 (≈ 45.1 µM)
Cc1ccccc1-n1c(=O)n(CCc2ccccc2)c(=O)c2[nH]cnc21	10.8 (≈ 31.2 µM)

Structure (SMILES)	solubility kinetic [µg/mL]
CCOc1cc(N2CCOCC2)c(OCC)cc1NC(=O)CSc1ncccc1C(=O)O	> 69.2
Cc1cc(C(=O)NC2Cc3ccccc3C2)c(C)o1	> 38.3
COc1ccccc1NC(=O)NCCc1c[nH]c2ccccc12	41.1 (≈ 133 µM)
C#CCn1ccc(O)c(Cc2c(F)cccc2Cl)c1=O	> 43.8
O=C(Nc1cccnc1)c1ccc(C(=O)Nc2cccnc2)cc1	0.8 (≈ 2.51 µM)
O=C(CSc1n[nH]c(-c2ccc(Br)cc2)n1)N1CCOCC1	> 57.5
COc1cc(CO)ccc1OCc1ccc(Cl)nc1	> 42
O=C(CNc1ccccc1Cl)c1ccc(Br)cc1	< 0.7
CN=C(C)/C(C(=O)OC)=C(/O)c1ccccc1F	32.3 (≈ 129 µM)
O=C(CN1C(=O)NC2(CCCCCC2)C1=O)NCCc1ccccc1	> 51.5
CC(C)(C)NC(=O)NC(=O)CN1CCN(Cc2ccccc2)CC1	45.3 (≈ 136 µM)
Cc1c(N2C(=O)CSC2c2ccco2)c(=O)n(-c2ccccc2)n1C (stereo unspecified)	> 53.3
N#Cc1ccc(NC(=S)NC(=O)C2CCCCC2)cc1	1.6 (≈ 5.57 µM)
O=C(NCc1ccco1)c1cc(S(=O)(=O)NC2CC2)ccc1Br	> 59.9
COc1ccc(NC(=O)c2ccc3ncsc3c2)cc1	1.3 (≈ 4.57 µM)
COc1cc(OC)cc(C(=O)NCC(=O)OCC(=O)NC2CCCc3ccccc32)c1 (stereo unspecified)	58.5 (≈ 137 µM)
COc1cccc(Oc2nc(N)ncc2[N+](=O)[O-])c1	32.3 (≈ 123 µM)
Cc1ccc(S(=O)(=O)/C(=C\N(C)C)c2cnc(Cl)s2)cc1	> 51.4
COc1ccc2c(c1)CCc1c-2nc2ccccc2c1N1CCOCC1	5.5 (≈ 15.9 µM)
